Several values for one entry are separate records, joined by “and”; a condition that tells them apart may be missing. Equal entries are not always repeated. Toxic doses and inconclusive results are not listed. No stated cut-off is given here; in the data, active means T/C of 150% or more; inactive means T/C below 125%.
Test system: L1210 leukemia ip in BDF1 mice, survival T/C
Experiment: NCI In Vivo Anticancer Drug Screen. Data for tumor model L1210 Leukemia (intraperitoneal) in B6D2F1 (BDF1) mice
Conditions: endpoint: mean survival time, higher = longer survival
Procedure, shortened: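 Ratio derived from survival: compound-dosed mice over vehicle-dosed mice, all bearing a transplantable tumor.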

[1] = dose: 100.0 mg/kg/injection, schedule: Q01DX009 (ip), vehicle: saline
[2] = dose: 100.0 mg/kg/injection, schedule: Q04DX003 (ip), vehicle: saline with Tween-80
[3] = dose: 200.0 mg/kg/injection, schedule: Q01DX009 (ip), vehicle: saline
[4] = dose: 200.0 mg/kg/injection, schedule: Q04DX003 (ip), vehicle: saline with Tween-80
[5] = dose: 400.0 mg/kg/injection, schedule: Q01DX009 (ip), vehicle: saline
[6] = dose: 400.0 mg/kg/injection, schedule: Q04DX003 (ip), vehicle: saline with Tween-80
[7] = dose: 100.0 mg/kg/injection, schedule: Q04DX002 (ip), vehicle: saline
[8] = dose: 200.0 mg/kg/injection, schedule: Q04DX002 (ip), vehicle: saline
[9] = dose: 100.0 mg/kg/injection, schedule: Q01DX009 (ip), vehicle: saline with Tween-80
[10] = dose: 200.0 mg/kg/injection, schedule: Q01DX009 (ip), vehicle: saline with Tween-80
[11] = dose: 400.0 mg/kg/injection, schedule: Q01DX009 (ip), vehicle: saline with Tween-80

Measured: T/C

C1CC2OC2C1 (centres undefined)
inactive: [1] 104 % of control | [2] 97 % of control | [3] 108 % of control | [4] 100 % of control | [5] 105 % of control | [6] 90 % of control

Cc1ccc2nc(-c3ccc(N)cc3)sc2c1S(=O)(=O)O
inactive: [1] 100 % of control | [7] 92 % of control | [3] 96 % of control | [8] 105 % of control | [5] 110 % of control | dose: 400.0 mg/kg/injection, schedule: Q04DX002 (ip), vehicle: saline 99 % of control

N#CC1(C#N)CC=CCC1(C#N)C#N
inactive: dose: 12.5 mg/kg/injection, schedule: Q01DX009 (ip), vehicle: other 92 % of control | dose: 25.0 mg/kg/injection, schedule: Q01DX009 (ip), vehicle: other 87 % of control

BrC1CC2CCCCC2CC1Br (centres undefined)
inactive: dose: 100.0 mg/kg/injection, schedule: Q01DX001 (ip), vehicle: carboxymethylcellulose (CMC) 98 % of control | dose: 200.0 mg/kg/injection, schedule: Q01DX001 (ip), vehicle: carboxymethylcellulose (CMC) 101 % of control | dose: 400.0 mg/kg/injection, schedule: Q01DX001 (ip), vehicle: carboxymethylcellulose (CMC) 101 % of control

C1=C(c2ccccc2)CCCCC1
inactive: [9] 87 % of control | [2] 95 % of control | [10] 96 % of control | [4] 100 % of control | [11] 99 % of control | [6] 98 % of control

Oc1c2ccsc2cc2ccsc12
inactive: dose: 100.0 mg/kg/injection, schedule: Q01DX001 (ip), vehicle: saline with Tween-80 94 % of control | dose: 200.0 mg/kg/injection, schedule: Q01DX001 (ip), vehicle: saline with Tween-80 94 % of control | dose: 400.0 mg/kg/injection, schedule: Q01DX001 (ip), vehicle: saline with Tween-80 91 % of control

CCOC(=O)c1c(Cl)c(Cl)c(C(=O)OCC)c(Cl)c1Cl
inactive: dose: 100.0 mg/kg/injection, schedule: Q01DX009 (ip), vehicle: saline sonified 101 % of control | dose: 100.0 mg/kg/injection, schedule: Q04DX003 (ip), vehicle: Klucel (hydroxypropylcellulose) (HPC) 101 % of control | dose: 200.0 mg/kg/injection, schedule: Q01DX009 (ip), vehicle: saline sonified 97 % of control | dose: 200.0 mg/kg/injection, schedule: Q04DX003 (ip), vehicle: Klucel (hydroxypropylcellulose) (HPC) 95 % of control | dose: 400.0 mg/kg/injection, schedule: Q01DX009 (ip), vehicle: saline sonified 95 % of control | dose: 400.0 mg/kg/injection, schedule: Q04DX003 (ip), vehicle: Klucel (hydroxypropylcellulose) (HPC) 92 % of control

CCN(CC)C(=S)SCC(=O)O
inactive: dose: 100.0 mg/kg/injection, schedule: Q04DX003 (ip), vehicle: other 101 % of control | dose: 200.0 mg/kg/injection, schedule: Q04DX003 (ip), vehicle: other 98 % of control | dose: 400.0 mg/kg/injection, schedule: Q04DX003 (ip), vehicle: other 98 % of control

O=S(=O)(Nc1nccs1)c1ccc(N(CCCl)CCCl)cc1
inactive: dose: 50.0 mg/kg/injection, schedule: Q01DX009 (ip), vehicle: Klucel (hydroxypropylcellulose) (HPC) 116 % of control

NCCCN1CCCN=C1C1=NCCCN1CCCN
inactive: [9] 96 % of control | [7] 100 % of control | [2] 109 % of control | [10] 100 % of control | [8] 100 % of control | [4] 98 % of control | [11] 100 % of control | [6] 95 % of control

O=C(NC1CCCCC1)Oc1c(Cl)cc(Cl)c(Cl)c1[N+](=O)[O-]
inactive: dose: 25.0 mg/kg/injection, schedule: Q04DX002 (ip), vehicle: saline with Tween-80 92 % of control | dose: 50.0 mg/kg/injection, schedule: Q04DX002 (ip), vehicle: saline with Tween-80 99 % of control | dose: 100.0 mg/kg/injection, schedule: Q04DX002 (ip), vehicle: saline with Tween-80 99 % of control and 114 % of control

CCC(COC(=O)c1ccc([N+](=O)[O-])cc1)NCCC1CCCCC1 (centres undefined)
inactive: dose: 75.0 mg/kg/injection, schedule: Q01DX001 (ip), vehicle: saline 101 % of control | dose: 150.0 mg/kg/injection, schedule: Q01DX001 (ip), vehicle: saline 104 % of control | dose: 300.0 mg/kg/injection, schedule: Q01DX001 (ip), vehicle: saline 103 % of control

O=C(COc1ccc(Cl)cc1Cl)Nc1ccc(F)cc1
inactive: dose: 25.0 mg/kg/injection, schedule: Q01DX009 (ip), vehicle: saline with Tween-80 93 % of control | dose: 50.0 mg/kg/injection, schedule: Q01DX009 (ip), vehicle: saline with Tween-80 91 % of control | [9] 104 % of control and 88 % of control

COC(OC)c1[nH]c(=S)[nH]c(=O)c1C
inactive: [2] 107 % of control | [4] 105 % of control | [6] 105 % of control

CCCCn1c(N)n[nH]c1=S
inactive: [2] 100 % of control | [4] 90 % of control | [6] 94 % of control

Reference: PubChem BioAssay AID248 (DTP/NCI, 2004)
